Earlier results as cited in patent US12715832B2, “Co-crystal of coenzyme QH and nicotinamide, preparation method therefor and use thereof” (COCRYSTAL TECHNOLOGY (JIAXING) CO., LTD, priority 2021, dated 2026).

Conditions: in the air at 25° C. for 28 days

COc1c(O)c(C)c(C/C=C(\C)CC/C=C(\C)CC/C=C(\C)CC/C=C(\C)CC/C=C(\C)CC/C=C(\C)CC/C=C(\C)CC/C=C(\C)CC/C=C(\C)CCC=C(C)C)c(O)c1OC [stable polymorph of coenzyme QH, coenzyme QH]
coenzyme QH oxidized: about 6%
